In patent US10105357B2, “Indication of antibiotic drugs for preparation of cancer inhibition pharmaceutical composition” (LAUNX BIOMEDICAL CO., LTD., priority 2014, dated 2018):

Legend:
[1] = test system: HI650 (Lung Adenocarcinoma); assay: Cell viability analysis, lung cancer HI650; assay type: cell-based, human; settings: Homo sapiens, NCI-H1650, 72 h, read-out: cell viability (survival rate), H1650, drug 10 μM, 72 hours, WST-1, OD450 nm
[2] = test system: HCT116 (p53+) (Colorectal Carcinoma); assay: cells; settings: Homo sapiens, HCT-116, 72 h, read-out: cell viability (survival rate), HCT116
[3] = test system: MCF7 (Mammary Gland, Adenocarcinoma); assay: Cell viability analysis, breast cancer MCF7; assay type: cell-based, human; settings: Homo sapiens, MCF7, 72 h, read-out: cell viability (survival rate), MCF7, drug 10 μM, 72 hours, WST-1, OD450 nm
[4] = test system: HeLa (Cervix Adenocarcinoma); assay: Cell viability analysis, cervical cancer HeLa; assay type: cell-based, human; settings: Homo sapiens, HeLa, 72 h, read-out: cell viability (survival rate), HeLa, drug 10 μM, 72 hours, WST-1, OD450 nm
[5] = test system: HL-60 (Acute Promyelocytic Leukemia); assay: Cell viability analysis, leukemia HL-60; assay type: cell-based, human; settings: Homo sapiens, HL-60, 72 h, read-out: cell viability (survival rate), HL-60, drug 10 μM, 72 hours, WST-1, OD450 nm
[6] = test system: PC3 (p53−) (Prostate Adenocarcinoma); assay: Cell viability analysis, prostate cancer PC3; assay type: cell-based, human; settings: Homo sapiens, 72 h, read-out: cell viability (survival rate), PC3, drug 10 μM, 72 hours, WST-1, OD450 nm
[7] = test system: A375 (Amelanotic Melanoma); assay: Cell viability analysis, skin cancer A375; assay type: cell-based, human; settings: Homo sapiens, A-375, 72 h, read-out: cell viability (survival rate), A375, drug 10 μM, 72 hours, WST-1, OD450 nm
[8] = test system: AGS (Gastric Adenocarcinoma); assay: Cell viability analysis, gastric cancer AGS; assay type: cell-based, human; settings: Homo sapiens, 72 h, read-out: cell viability (survival rate), AGS, drug 10 μM, 72 hours, WST-1, OD450 nm
[9] = test system: A549 (Lung Adenocarcinoma); assay: Cell viability analysis, lung cancer A549; assay type: cell-based, human; settings: Homo sapiens, A549, 72 h, read-out: cell viability (survival rate), A549, drug 10 μM, 72 hours, WST-1, OD450 nm
[10] = test system: HepG2 (Hepatocellular Carcinoma); assay: Cell viability analysis, hepatic cancer HepG2; assay type: cell-based, human; settings: Homo sapiens, HepG2, 72 h, read-out: cell viability (survival rate), HepG2, drug 10 μM, 72 hours, WST-1, OD450 nm
[11] = test system: TSGH-8301 (Urinary Bladder Carcinoma); assay: Cell viability analysis, bladder cancer TSGH-8301; assay type: cell-based, human; settings: Homo sapiens, 72 h, read-out: cell viability (survival rate), TSGH, drug 10 μM, 72 hours, WST-1, OD450 nm
[12] = test system: LoVo (Colorectal Adenocarcinoma); assay: Cell viability analysis, colon cancer LoVo; assay type: cell-based, human; settings: Homo sapiens, LoVo, 72 h, read-out: cell viability (survival rate), LoVo, drug 10 μM, 72 hours, WST-1, OD450 nm

| SMILES | viability at 10 µM [1] | viability at 10 µM [2] | viability at 10 µM [3] | viability at 10 µM [4] | viability at 10 µM [5] | viability at 10 µM [6] | viability at 10 µM [7] | viability at 10 µM [8] | viability at 10 µM [9] | viability at 10 µM [10] | viability at 10 µM [11] | viability at 10 µM [12] |
| --- | --- | --- | --- | --- | --- | --- | --- | --- | --- | --- | --- | --- |
| O=c1cc[nH]c(=O)[nH]1 [Uracil] | 91.8% | 94.3% | 103% | 107% | 98.7% | 163% | 98.2% | 82.9% | 80.5% | 100% | 104% | 70.2% |
| O=c1ccc2ccccc2o1 [Coumarin] | 95.6% | 93.7% | – | 96.5% | 102% | 86.3% | 157% | 98.5% | 91.8% | 100% | 108% | 88.3% |
